Experimental data as given in patent US20260138961A1, “MODULATORS OF MITOCHONDRIAL DNA REPLICATION” (Pretzel Therapeutics, Inc., priority 2022, published 2026).

What follows are molecules tested against T1, POLγ W748S + E1143G (Homo sapiens, UniProt P54098, E1143G/W748S) (assay: DNA polymerization assay, W748S + E1143G mutant). Details: stimulation of polymerase activity, primed M13mp18 ssDNA, 37° C. 2 hours.
T1 sequence (P54098 1-1239 W748S/E1143G): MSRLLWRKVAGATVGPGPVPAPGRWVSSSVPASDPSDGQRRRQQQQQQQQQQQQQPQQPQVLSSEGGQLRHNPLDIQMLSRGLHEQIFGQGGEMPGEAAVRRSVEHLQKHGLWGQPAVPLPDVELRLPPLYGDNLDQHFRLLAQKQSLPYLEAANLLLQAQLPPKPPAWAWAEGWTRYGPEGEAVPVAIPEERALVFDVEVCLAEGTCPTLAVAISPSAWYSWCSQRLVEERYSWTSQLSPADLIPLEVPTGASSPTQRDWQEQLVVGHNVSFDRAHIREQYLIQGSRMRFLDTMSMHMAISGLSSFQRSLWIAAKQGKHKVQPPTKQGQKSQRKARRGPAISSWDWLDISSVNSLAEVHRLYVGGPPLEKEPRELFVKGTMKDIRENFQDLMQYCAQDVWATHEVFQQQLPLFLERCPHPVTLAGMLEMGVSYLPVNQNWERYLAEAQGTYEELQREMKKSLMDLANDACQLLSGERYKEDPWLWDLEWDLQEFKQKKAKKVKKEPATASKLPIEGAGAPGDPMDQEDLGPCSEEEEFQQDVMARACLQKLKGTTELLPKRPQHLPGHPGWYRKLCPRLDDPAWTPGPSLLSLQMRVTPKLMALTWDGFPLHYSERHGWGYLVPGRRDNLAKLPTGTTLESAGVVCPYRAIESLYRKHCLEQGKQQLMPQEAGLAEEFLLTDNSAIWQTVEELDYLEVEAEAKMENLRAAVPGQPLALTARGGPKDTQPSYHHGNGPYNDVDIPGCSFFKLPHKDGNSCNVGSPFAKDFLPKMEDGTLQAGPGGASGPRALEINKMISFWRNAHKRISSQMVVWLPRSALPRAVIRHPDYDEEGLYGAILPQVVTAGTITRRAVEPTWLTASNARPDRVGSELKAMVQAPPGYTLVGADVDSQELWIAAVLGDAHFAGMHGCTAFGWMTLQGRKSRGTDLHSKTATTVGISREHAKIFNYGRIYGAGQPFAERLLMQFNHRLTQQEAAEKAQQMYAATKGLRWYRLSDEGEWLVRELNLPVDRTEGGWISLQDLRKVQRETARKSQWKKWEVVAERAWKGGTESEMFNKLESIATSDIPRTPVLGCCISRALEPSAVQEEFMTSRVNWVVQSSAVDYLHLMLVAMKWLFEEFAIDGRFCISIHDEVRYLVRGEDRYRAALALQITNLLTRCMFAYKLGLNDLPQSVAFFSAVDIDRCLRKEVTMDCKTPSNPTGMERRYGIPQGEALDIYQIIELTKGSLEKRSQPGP
T1 sequence (Q9UHN1 1-485 partner): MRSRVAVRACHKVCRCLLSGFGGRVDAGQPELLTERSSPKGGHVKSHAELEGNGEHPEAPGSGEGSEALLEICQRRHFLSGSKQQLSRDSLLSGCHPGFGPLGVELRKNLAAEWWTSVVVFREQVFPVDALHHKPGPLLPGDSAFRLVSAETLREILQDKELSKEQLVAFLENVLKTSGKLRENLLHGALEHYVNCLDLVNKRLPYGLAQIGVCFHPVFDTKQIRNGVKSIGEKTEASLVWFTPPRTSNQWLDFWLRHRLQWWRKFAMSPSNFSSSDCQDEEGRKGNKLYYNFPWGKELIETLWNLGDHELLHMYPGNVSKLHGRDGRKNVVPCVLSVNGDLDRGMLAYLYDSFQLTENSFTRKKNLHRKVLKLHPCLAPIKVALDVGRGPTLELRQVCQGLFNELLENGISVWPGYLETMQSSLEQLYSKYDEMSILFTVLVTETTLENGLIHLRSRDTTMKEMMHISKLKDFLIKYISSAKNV
Assay type: biochemical

Row | Structure (SMILES) | AC50 [nM]
1 | Cc1cc(S(=O)(=O)Nc2cccc(-c3ncc(C4CC4)s3)c2)c(C)cc1Cl [Example 76, 4-chloro-N-(3-(5-cyclopropylthiazol-2-yl)phenyl)-2,5-dimethylbenzenesulfonamide] | 6000
2 | Cc1csc(-c2ccccc2NS(=O)(=O)c2cc(C)c(Cl)cc2C)n1 [Example 80, 4-chloro-2,5-dimethyl-N-(2-(4-methylthiazol-2-yl)phenyl)benzenesulfonamide] | > 100000
3 | Cc1cc(S(=O)(=O)Nc2csc(-c3ccccc3)n2)c(C)cc1Cl [Example 81, 4-chloro-2,5-dimethyl-N-(2-phenylthiazol-4-yl)benzenesulfonamide] | 700
4 | Cc1cc(S(=O)(=O)Nc2cccc(-c3ncc(CN(C)C)s3)c2)c(C)cc1Cl [Example 87, 4-chloro-N-(3-(5-((dimethylamino)methyl)thiazol-2-yl)phenyl)-2,5-dimethylbenzenesulfonamide] | 5000
5 | Cc1cc(S(=O)(=O)Nc2cccc(-c3ncc(CO)s3)c2)c(C)cc1Cl [Example 89, 4-chloro-N-(3-(5-(hydroxymethyl)thiazol-2-yl)phenyl)-2,5-dimethylbenzenesulfonamide] | 800
6 | Cc1cc(S(=O)(=O)Nc2csc(-c3ccnn3C)n2)c(C)cc1Cl [Example 182, 4-chloro-2,5-dimethyl-N-(2-(1-methyl-1H-pyrazol-5-yl)thiazol-4-yl)benzenesulfonamide] | 1000
